This note sets out measurements from patent US20220073470A1, “INHIBITORS OF CGAS ACTIVITY AS THERAPEUTIC AGENTS” (BELLBROOK LABS, LLC, priority 2019, published 2022).

Values after ≈ are worked out from the molar mass of the structure shown. Like-named read-outs stand apart in the source and are kept apart here. Some results are limits rather than exact numbers.

The target in one data set is Mouse cGAS (Mus musculus, UniProt Q8C6L5). Briefly: cGAS enzymatic assay with mouse cGAS. Type of data set: biochemical. The protocol: (§1) Potency and MOA studies, including Mn^2+ sensitivity, are performed using the cGAS enzymatic assay. Dose response experiments are used to determine IC50 values under basal conditions (5 mM MgCl2, 100 μM ATP/GTP), and with the addition of physiological levels of Mn (0.2 mM) using human and mouse cGAS. Ligand optimization is driven by potency with the human enzyme; potency with mouse cGAS informs selection of an appropriate disease model for efficacy studies. Competition with ATP and GTP is assessed by comparing basal IC50 values to those in the presence of saturating ATP or GTP, and subsequently confirmed by measuring velocity vs. substrate at varying ATP or GTP levels. Inhibitor residence times (1/koff) are used as a key parameter for prioritizing compounds and driving SAR, because a longer residence time often results from an allosteric mechanism, and can also correlate with improved cellular activity. The cGAS enzymatic assay is used with the jump dilution method to measure residence times (inhibitor dissociation rates), as described for kinases using the very similar ADP assay. Biophysical methods, including SPR and TSAn, are used as orthologous methods for residence time measurements and kd estimates.

For data set [1], the system named is DNA-stimulated IFNβ expression. Briefly: IFNβ ELISA, DNA-stimulated IFNβ expression. Type of data set: cell-based. The protocol:
(§2) FIG. 5A illustrates activity of IFNβ expression of compound 14 in three different experiments. FIG. 5B illustrates the ISG mRNA expression of compound 14 in THP1-dual cells. Compound 14 in concentration of 200 μM was evaluated after 24 hours.
(§3) Cellular activity of several compounds of formula (I) was assessed in […]. For example, FIG. 5A illustrates activity of IFNβ expression, and FIG. 5B illustrates the ISG mRNA expression of compound 14 in THP1-dual cells.

Data set [2] has as its system IRF3-driven transcription. Briefly: IRF3-Luc reporter, THP1 dual-cell reporter system. Format: cell-based. The settings on record: Homo sapiens, THP-1; read-out: Cellular IRF3-Luc. The text has this:
(§4) FIG. 4 includes a schematic showing the THP1 dual-cell reporter system: secreted luciferase reports on IRF3-driven transcription; secreted alkaline phosphatase reports on NFκB-driven transcription, both downstream of cGAS/STING.

The target of the next data set is T1, full-length human cGAS (Homo sapiens, UniProt Q8N884).
T1 construct: The cGAS assay was used to screen 100,000 compounds with full-length human cGAS; 6xHis; made in house
Briefly: cGAS enzymatic assay (FP readout), inhibition of cGAS. Type of data set: biochemical. The protocol: Some exemplary compounds of the disclosure were tested for inhibition of cGAS (30 nM). The results are provided in Table 1 where “A” indicates an IC50 of less than 100 nM, “B” indicates an IC50 of greater than 100 nM and less than 500 nM, “C” indicates an IC50 of greater than 500 nM and less than 1 μM, “D” indicates an IC50 of greater than 1 μM and less than 10 μM, and “E” indicates an IC50 of greater than 10 μM.
A homogenous cGAS enzymatic assay was developed with fluorescence polarization (FP) and time-resolved Forster resonance energy transfer (TR-FRET) readouts (FIG. 2A-D). The cGAS assay was used to screen 100,000 compounds with full-length human cGAS (FIG. 2E), resulting in the identification of novel chemotypes, two of which are further developed in a structure-driven hit-to-lead study (Table 3, below). The assay performance was robust, as indicated by respective Z and Z′ values of 0.59 and 0.63 in the screen; compounds with polarization values greater than three SDs from the mean were considered hits; a scatterplot from 10 plates (3,200 compounds) is shown in FIG. 2D.
as §1

A short description of data set [3]: Human microsomal stability (NADPH). Type of data set: in vitro ADME. To be noted: liver microsomes, read-out: Human MS Stability (NADPH) t1/2. The protocol: (§5) Compounds are tested in Caco-2 and MDR1-MDCK permeability assays to provide a measure of intestinal absorption, blood-brain-permeability and efflux by P-glycoprotein (P-gp), a frequent obstacle to effective CNS delivery. CNS drugs are associated with high passive membrane permeability (Papp>1×10^−6 cm/sec) and have low efflux ratios (Papp(B−A)/Papp(A−B)<2.5). Metabolic stability is tested using mouse and human liver microsomes incubated with NADPH for CYP-dependent metabolism and with UDPGA for glucuronidation. Compounds are tested for pharmacokinetics and brain penetration in mice using oral, intravenous and intraperitoneal administration.

Data set [4] is described as follows: Mouse microsomal stability (NADPH). Format: in vitro ADME. The settings on record: liver microsomes, read-out: Mouse MS Stability (NADPH) t1/2. The protocol: as §5
Data set [5] concerns Madin-Darby Canine Kidney cells-Multi Drug Resistance pump. Briefly: MDCK-MDR permeability and efflux. Type of data set: in vitro ADME. The protocol: as §5
In the next data set the test system is P-glycoprotein (MDR1). Briefly: MDCK-MDR permeability and efflux. Type of data set: in vitro ADME, Canine. The settings on record: dog, MDCK-MDR1. The protocol:
as §5

Another data set deals with cGAS (Homo sapiens, UniProt Q8N884). Briefly: SPR binding to cGAS. The settings on record: enzymatic analysis and biophysical binding studies (SPR, TSA). The source says: Following confirmation of hits at three concentrations and removal of compounds with visually evident reactivity or metabolic liabilities, non-stoichiometric inhibitors, aggregators, DNA intercalators and redox-active compounds were triaged using established assays. Initial SAR based on more than 100 commercially available analogs provided additional confidence that the compounds of the disclosure were bonafide inhibitors, and informed potential scaffold hops and toleration for modifications. The compounds of formula (I) of the disclosure were selected for advancement into a hit-to-lead study. […] The compounds of formula (I) of the disclosure are competitive with GTP and its potency is enhanced in the presence of Mn^2+.
Potency and MOA studies, including Mn^2+ sensitivity, are performed using the cGAS enzymatic assay. Dose response experiments are used to determine IC50 values under basal conditions (5 mM MgCl2, 100 μM ATP/GTP), and with the addition of physiological levels of Mn (0.2 mM) using human and mouse cGAS. Ligand optimization is driven by potency with the human enzyme; potency with mouse cGAS informs selection of an appropriate disease model for efficacy studies. Competition with ATP and GTP is assessed by comparing basal IC50 values to those in the presence of saturating ATP or GTP, and subsequently confirmed by measuring velocity vs. substrate at varying ATP or GTP levels. […]

A further data set relates to ISG mRNA expression. Briefly: ISG mRNA expression in THP1-dual cells. Type of data set: cell-based. The protocol: as §2, §3
Data set [6] can be described thus: Solubility Ksol in PBS pH 7.4. Format: physicochemical. To be noted: pH 7.4, aqueous buffer, kinetic from dmso stock.
In data set [7] the test system is kinases (Abl1, PKA, TBK1), GTPase (Rac1), phosphodiesterase (PDE4A), ENPP1. Briefly: Selectivity panel of nucleotide-utilizing enzymes. Format: biochemical. The protocol: The compounds of formula (I) of the disclosure were tested for improved potency and other drug-like properties.
A panel of nucleotide-utilizing enzymes that included kinases (Abl1, PKA, TBK1—which transduces cGAS/STING signals, see FIG. 4) a GTPase (Rac1), a phosphodiesterase (PDE4A), and ENPP1, a nucleotidase that degrades cGAMP, was used preliminarily. cGAS assays were used to perform dose response measurements with cGAS inhibitors. In addition to these enzymes, inhibitors are tested with three other members of the oligoadenylate synthases (OAS), nucleic acid sensors that activate innate immunity via production of short, 2′-5′ oligoadenylate second messengers. Methods for expression and purification of the human and/or porcine enzymes in E. coli or baculovirus-infected insect cells have been developed as well as a simple, absorbance-based assay using commercially available pyrophosphate kit. In addition, an FP-based assay (competitive displacement of a fluor-cGAMP tracer) is developed to test compounds as ligands for STING.

The test system of data set [8] is NFκB-driven transcription. Briefly: NFκB-SEAP reporter, THP1 dual-cell reporter system. Format: cell-based. The settings on record: Homo sapiens, THP-1; read-out: Cellular NFκB-SEAP.
Description: as §4

T1 sequence (Q8N884 whole entry): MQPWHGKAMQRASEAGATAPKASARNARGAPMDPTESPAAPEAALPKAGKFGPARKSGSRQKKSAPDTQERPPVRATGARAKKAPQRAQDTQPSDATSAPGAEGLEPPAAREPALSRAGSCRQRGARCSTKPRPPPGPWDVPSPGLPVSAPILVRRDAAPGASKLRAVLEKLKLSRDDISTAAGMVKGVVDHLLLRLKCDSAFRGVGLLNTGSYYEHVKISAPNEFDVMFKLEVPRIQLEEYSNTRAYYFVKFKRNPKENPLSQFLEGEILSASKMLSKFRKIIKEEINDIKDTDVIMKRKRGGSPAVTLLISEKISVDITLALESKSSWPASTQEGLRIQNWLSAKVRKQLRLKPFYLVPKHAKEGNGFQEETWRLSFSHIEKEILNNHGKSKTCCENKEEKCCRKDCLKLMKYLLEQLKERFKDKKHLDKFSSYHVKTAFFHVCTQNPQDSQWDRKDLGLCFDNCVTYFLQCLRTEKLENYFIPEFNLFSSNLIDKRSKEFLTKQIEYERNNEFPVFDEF
cGAS, sequence (Q8N884 whole entry): as above
Mouse cGAS, sequence (Q8C6L5 whole entry): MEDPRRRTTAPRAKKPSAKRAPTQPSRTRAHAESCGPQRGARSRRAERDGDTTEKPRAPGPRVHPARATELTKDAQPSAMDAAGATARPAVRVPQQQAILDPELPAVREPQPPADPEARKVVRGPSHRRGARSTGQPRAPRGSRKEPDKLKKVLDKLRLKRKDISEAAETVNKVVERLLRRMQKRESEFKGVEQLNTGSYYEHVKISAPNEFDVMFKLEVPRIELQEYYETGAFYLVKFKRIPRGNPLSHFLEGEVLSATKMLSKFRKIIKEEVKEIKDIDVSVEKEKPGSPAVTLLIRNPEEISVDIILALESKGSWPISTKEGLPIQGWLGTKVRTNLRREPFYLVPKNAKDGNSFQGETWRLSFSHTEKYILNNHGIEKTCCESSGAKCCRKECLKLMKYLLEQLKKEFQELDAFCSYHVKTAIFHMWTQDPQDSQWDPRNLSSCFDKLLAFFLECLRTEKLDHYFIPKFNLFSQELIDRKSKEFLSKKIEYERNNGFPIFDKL

On to `COc1cc2c(-n3ccnc3)ccnc2cc1Cl` [Compound 14, 7-chloro-4-(1H-imidazol-1-yl)-6-methoxyquinoline], for which the IC50 against Mouse cGAS turned out to be 93 nM; in [1] (read-out: Cellular IFNβ ELISA), 68000 nM; in [2] it was 75000 nM; at full-length human cGAS (100 μM ATP/GTP, read-out: Enzymatic FP Std (100 μM ATP/GTP)), 391 nM; on full-length human cGAS (1 mM ATP/GTP, read-out: Enzymatic FP Physiological (1 mM ATP/GTP)) it was 1920 nM; on full-length human cGAS (5 mM Mg2+, 0.2 mM Mn2+, read-out: IC50 (5 mM Mg^2+, 0.2 mM Mn^2+)) it was 48 ± 2 nM. Further, the IC50 on full-length human cGAS (5 mM Mg2+, no Mn2+, read-out: IC50 (5 mM Mg^2+)) is 550 ± 10 nM; on full-length human cGAS (cGAS (30 nM), no Mn2+, read-out: Inhibition cGAS (IC50 class)), 500 to 1000 nM; on full-length human cGAS (cGAS (30 nM), with Mn2+, read-out: Inhibition cGAS + Mn^2+ (IC50 class)) it was < 100 nM; in [8], 59000 nM. In [1], the “DNA-stimulated IFNβ expression as measured by ELISA” value is “specific inhibition”. For the same compound, on full-length human cGAS (competition with substrates), the MOA result is “GTP Competitive”. Also, the half-life was 1.93 h in [3] and 0.355 h in [4]. The MDR-1-mediated export entry in data set [5] is “no indication of MDR-1-mediated export”. Also, the efflux ratio in the data set with P-glycoprotein (MDR1) is 0.5. This compound showed a Papp A→B in the data set with P-glycoprotein (MDR1) (A→B) of 76.7 ×10⁻⁶ cm/s. The “Binding stoichiometry to cGAS” value on cGAS was “Stoichiometric binding (1:1)”. Besides, the “ISG expression” value with ISG mRNA expression was “inhibition”. Besides, the “ISG expression (fold decrease @ 200 μM)” value in the data set with ISG mRNA expression (200 μM, THP1-dual cells, 24 hours) was 2-10×. Further, the solubility in data set [6] is 224 µM (≈ 58.2 µg/mL). Besides, in data set [7], the “Off-Target Activity (Kinase, PDE, GTPase, ENPP1)” value is “None”. Moreover, in data set [7] (at 200 μM, kinases, a GTPase, a phosphodiesterase, a nucleotidase), the “Inhibitory activity with panel of nucleotide-utilizing enzymes” value is on record as “lack of inhibitory activity”.
